In US10160762B2, “6-alkyl dihydropyrazolopyrimidinone compounds as PDE2 inhibitors” (Merck Sharp & Dohme Corp., priority 2015, dated 2018):

Target: T1, Rhesus PDE2A3 (Macaca mulatta, UniProt B3VTJ2)
T1 construct: made in house; host or cells: AD293 cells, transient transfection; supernatant of sonicated lysate
T1 sequence (B3VTJ2 1-941): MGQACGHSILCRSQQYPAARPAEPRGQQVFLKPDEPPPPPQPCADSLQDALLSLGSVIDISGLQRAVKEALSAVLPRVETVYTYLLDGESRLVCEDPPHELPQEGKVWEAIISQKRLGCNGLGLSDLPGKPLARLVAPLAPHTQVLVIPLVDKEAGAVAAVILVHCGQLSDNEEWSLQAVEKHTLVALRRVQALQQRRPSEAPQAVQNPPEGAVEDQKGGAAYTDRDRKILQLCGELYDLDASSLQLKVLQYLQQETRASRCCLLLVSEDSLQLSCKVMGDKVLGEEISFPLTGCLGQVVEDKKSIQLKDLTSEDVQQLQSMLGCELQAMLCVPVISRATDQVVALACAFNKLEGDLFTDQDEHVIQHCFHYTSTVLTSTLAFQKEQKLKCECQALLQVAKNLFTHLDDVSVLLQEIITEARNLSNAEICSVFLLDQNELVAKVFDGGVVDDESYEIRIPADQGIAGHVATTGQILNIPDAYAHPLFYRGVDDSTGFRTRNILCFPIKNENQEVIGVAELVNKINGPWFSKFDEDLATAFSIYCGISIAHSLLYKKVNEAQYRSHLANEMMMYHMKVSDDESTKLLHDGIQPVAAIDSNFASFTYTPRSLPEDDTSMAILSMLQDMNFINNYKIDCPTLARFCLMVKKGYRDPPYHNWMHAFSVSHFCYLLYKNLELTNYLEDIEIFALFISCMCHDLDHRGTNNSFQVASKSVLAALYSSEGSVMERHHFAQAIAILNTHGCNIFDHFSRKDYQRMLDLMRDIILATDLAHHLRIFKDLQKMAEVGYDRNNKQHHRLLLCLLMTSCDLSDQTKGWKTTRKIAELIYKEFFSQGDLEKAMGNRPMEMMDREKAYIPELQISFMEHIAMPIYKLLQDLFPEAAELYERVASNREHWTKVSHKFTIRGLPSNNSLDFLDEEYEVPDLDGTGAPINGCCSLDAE
Test: PDE2 fluorescence polarization (IMAP FP) inhibition assay, rhesus PDE2A3
Assay type: biochemical, rhesus macaque
Conditions: Lab B; read-out: Rhesus PDE2 Ki (nM) Lab B
Procedure, shortened: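 Enzyme source was the lysate supernatant of AD293 cells transiently expressing rhesus PDE2A3, diluted to give 20% conversion of 50 nM FAM-cAMP, with 1 µM cGMP as activator. Buffer was 10 mM Tris pH 7.2, 10 mM MgCl2, 1 mM DTT.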

Ki [nM] | Compound
2.9 | Cc1nc2c(c(CO)nn2C(C)c2ccc(OC(F)F)cc2)c(=O)[nH]1 (single isomer, unassigned) [Example 21, (S)- or (R)-1-(1-(4-(Difluoromethoxy)phenyl)ethyl)-3-(hydroxymethyl)-6-methyl-1H-pyrazolo[3,4-d]pyrimidin-4(5H)-one]
24 | COCc1nn(C(C)c2ccc(C(F)(F)F)cc2)c2nc(C)[nH]c(=O)c12 (single isomer, unassigned) [Example 279]
71 | Cc1nc2c(c(CC#N)nn2C(C)c2ccc(C(F)(F)F)cc2)c(=O)[nH]1 (single isomer, unassigned) [Example 280]
69 | CC(c1ccc(C(F)(F)F)cc1)n1nc(CO)c2c(=O)[nH]c(C(F)F)nc21 (stereo not shown) [Example 284, 6-(Difluoromethyl)-3-(hydroxymethyl)-1-(1-(4-(trifluoromethyl)phenyl)ethyl)-1H-pyrazolo[3,4-d]pyrimidin-4(5H)-one]
8.9 | Cc1nc2c(c(/C=N\O)nn2C(C)c2ccc(C(F)(F)F)cc2)c(=O)[nH]1 (stereo not shown) [Example 251, (Z)-6-Methyl-4-oxo-1-(1-(4-(trifluoromethyl)phenyl)ethyl)-4,5-dihydro-1H-pyrazolo[3,4-d]pyrimidine-3-carbaldehyde oxime]
1 | Cc1nc2c(c(CO)nn2C(c2ccc(C(F)(F)F)c(F)c2)C2CC2)c(=O)[nH]1 (single isomer, unassigned) [Example 91, (S)- or (R)-1-(Cyclopropyl(3-fluoro-4-(trifluoromethyl)phenyl)methyl)-3-(hydroxymethyl)-6-methyl-1H-pyrazolo[3,4-d]pyrimidin-4(5H)-one]
6.7 | Cc1nc2c(c(CO)nn2C2(c3ccc(C(F)(F)F)cc3)CCC2)c(=O)[nH]1 [Example 78, 3-(Hydroxymethyl)-6-methyl-1-(1-(4-(trifluoromethyl)phenyl)cyclobutyl)-1H-pyrazolo[3,4-d]pyrimidin-4(5H)-one]
3.6 | COCc1nc2c(c(CO)nn2C(C)c2ccc(C(F)(F)F)cc2)c(=O)[nH]1 (single isomer, unassigned) [Example 293]
1.9 | Cc1nc2c(c(CC#N)nn2C(C)c2ccc(C(F)(F)F)cc2)c(=O)[nH]1 (single isomer, unassigned) [Example 281]
90 | Cc1nc2c(c(CO)nn2C(c2ccc(C(F)(F)F)c(F)c2)C2CC2)c(=O)[nH]1 (single isomer, unassigned) [Example 90, (R)- or (S)-1-(Cyclopropyl(3-fluoro-4-(trifluoromethyl)phenyl)methyl)-3-(hydroxymethyl)-6-methyl-1H-pyrazolo[3,4-d]pyrimidin-4(5H)-one]
0.5 | Cc1nc2c(c(CF)nn2C(c2ccc(OC(F)(F)F)c(F)c2)C2CC2)c(=O)[nH]1 (single isomer, unassigned) [Example 228, (R)- or (S)-1-(Cyclopropyl(3-fluoro-4-(trifluoromethoxy)phenyl)methyl)-3-(fluoromethyl)-6-methyl-1,5-dihydro-4H-pyrazolo[3,4-d]pyrimidin-4-one]
1.9 | Cc1nc2c(c(CO)nn2C(c2ccc(OC(F)(F)F)c(F)c2)C2CC2)c(=O)[nH]1 (single isomer, unassigned) [Example 93, (S)- or (R)-1-(Cyclopropyl(3-fluoro-4-(trifluoromethoxy)phenyl)methyl)-3-(hydroxymethyl)-6-methyl-1H-pyrazolo[3,4-d]pyrimidin-4(5H)-one]
20 | Cc1nc2c(c(C#N)nn2C(C)c2ccc(C(F)(F)F)cc2)c(=O)[nH]1 (single isomer, unassigned) [Example 252]
1.7 | Cc1nc2c(c(CO)nn2C(C)c2ccc(SC(F)(F)F)cc2)c(=O)[nH]1 (single isomer, unassigned) [Example 23, (S)- or (R)-3-(Hydroxymethyl)-6-methyl-1-(1-(4-(trifluoromethylthio)phenyl)ethyl)-1H-pyrazolo[3,4-d]pyrimidin-4(5H)-one]
0.91 | Cc1nc2c(c(CO)nn2C(c2ccc(OC(F)(F)F)cc2)C(C)C)c(=O)[nH]1 (single isomer, unassigned) [Example 85, (S)- or (R)-3-(Hydroxymethyl)-6-methyl-1-(2-methyl-1-(4-(trifluoromethoxy)phenyl)propyl)-1H-pyrazolo[3,4-d]pyrimidin-4(5H)-one]
0.33 | Cc1nc2c(c(CF)nn2C(c2ccc(C(F)(F)F)c(F)c2)C2CC2)c(=O)[nH]1 (single isomer, unassigned) [Example 226, (R)- or (S)-1-(Cyclopropyl(3-fluoro-4-(trifluoromethyl)phenyl)methyl)-3-(fluoromethyl)-6-methyl-1,5-dihydro-4H-pyrazolo[3,4-d]pyrimidin-4-one]
2 | Cc1nc2c(c(CCO)nn2C(C)c2ccc(C(F)(F)F)cc2)c(=O)[nH]1 (single isomer, unassigned) [Example 250]

Further lines, the molecule ahead of its results:

Compound | Ki [nM]
Cc1nc2c(c(CO)nn2C(c2ccc(C(F)(F)F)c(F)c2)C(C)C)c(=O)[nH]1 (single isomer, unassigned) [Example 87, (S)- or (R)-1-(1-(3-Fluoro-4-(trifluoromethyl)phenyl)-2-methylpropyl)-3-(hydroxymethyl)-6-methyl-1H-pyrazolo[3,4-d]pyrimidin-4(5H)-one] | 3.2
Cc1nc2c(c(CF)nn2C(c2ccc(OC(F)(F)F)cc2)C2CC2)c(=O)[nH]1 (single isomer, unassigned) [Example 224, (R)- or (S)-1-(Cyclopropyl(4-(trifluoromethoxy)phenyl)methyl)-3-(fluoromethyl)-6-methyl-1,5-dihydro-4H-pyrazolo[3,4-d]pyrimidin-4-one] | 0.94
Cc1nc2c(c(CO)nn2C(c2ccc(C(F)(F)F)cc2)C(C)(C)C)c(=O)[nH]1 (single isomer, unassigned) [Example 83, (S)- or (R)-1-(2,2-Dimethyl-1-(4-(trifluoromethyl)phenyl)-propyl)-3-(hydroxymethyl)-6-methyl-1H-pyrazolo[3,4-d]pyrimidin-4(5H)-one] | 9.4
Cc1nc2c(c(CO)nn2C(c2ccc(C(C)(C)C)cc2)C2CC2)c(=O)[nH]1 (single isomer, unassigned) [Example 88, (R)- or (S)-1-((4-tert-Butylphenyl)(cyclopropyl)methyl)-3-(hydroxymethyl)-6-methyl-1H-pyrazolo[3,4-d]pyrimidin-4(5H)-one] | 51
COc1cccc(Cc2nc3c(c(CF)nn3C(C)c3ccc(C(F)(F)F)cc3)c(=O)[nH]2)c1 (single isomer, unassigned) [Example 221, (S)- or (R)-3-(Fluoromethyl)-6-(3-methoxybenzyl)-1-(1-(4-(trifluoromethyl)phenyl)ethyl)-1H-pyrazolo[3,4-d]pyrimidin-4(5H)-one] | 1.9
COc1ccc(Cc2nc3c(c(CF)nn3C(C)c3ccc(C(F)(F)F)cc3)c(=O)[nH]2)cc1 (single isomer, unassigned) [Example 219, (S)- or (R)-3-(Fluoromethyl)-6-(4-methoxybenzyl)-1-(1-(4-(trifluoromethyl)phenyl)ethyl)-1H-pyrazolo[3,4-d]pyrimidin-4(5H)-one] | 0.87
Cc1nc2c(c(CO)nn2C(C)c2ccc(C(F)(F)F)cc2F)c(=O)[nH]1 (single isomer, unassigned) [Example 17, (S)- or (R)-1-(1-(2-Fluoro-4-(trifluoromethyl)phenyl)ethyl)-3-(hydroxymethyl)-6-methyl-1H-pyrazolo[3,4-d]pyrimidin-4(5H)-one] | 1.7
Cc1nc2c(c(C=O)nn2C(C)c2ccc(C(F)(F)F)cc2)c(=O)[nH]1 (stereo not shown) [Example 248, 6-Methyl-4-oxo-1-(1-(4-(trifluoromethyl)phenyl)ethyl)-4,5-dihydro-1H-pyrazolo[3,4-d]pyrimidine-3-carbaldehyde] | 53
Cc1nc2c(c(CC(F)(F)F)nn2C(c2ccc(C(F)(F)F)cc2)C(C)(C)C)c(=O)[nH]1 (single isomer, unassigned) [Example 57, (S)- or (R)-1-(2,2-Dimethyl-1-(4-(trifluoromethyl)phenyl)propyl)-6-methyl-3-(2,2,2-trifluoroethyl)-1H-pyrazolo[3,4-d]pyrimidin-4(5H)-one] | 69
Cc1nc2c(c(CO)nn2C(C)c2ccc(S(F)(F)(F)(F)F)cc2)c(=O)[nH]1 (single isomer, unassigned) [Example 77] | 4.2
Cc1nc2c(c(CO)nn2C(c2ccc(OC(F)(F)F)cc2)C(C)C)c(=O)[nH]1 (single isomer, unassigned) [Example 84, (R)- or (S)-3-(Hydroxymethyl)-6-methyl-1-(2-methyl-1-(4-(trifluoromethoxy)phenyl)propyl)-1H-pyrazolo[3,4-d]pyrimidin-4(5H)-one] | 16
